Results reported in ChEMBL document CHEMBL1129533, “Thrombus imaging using technetium-99m-labeled high-potency GPIIb/IIIa receptor antagonists. Chemistry and initial biological studies” (J Med Chem, 1996).
Where a SMILES comes first, the peptide text is derived from it. Bridges are numbered along the chain shown (N, C = ends). [ ]: non-standard residue; d: D form. The star is where a group is joined. Propyl(3-NH2) = NCCC*; Acm = CC(=O)NC*

Columns and labels:
Homo sapiens = organism: Homo sapiens; experiment: Inhibition of ADP-induced platelet aggregation in human platelet rich citreated plasma in presence of 10-20 uM ADP.; type: functional
Canis familiaris [1] = organism: Canis familiaris; experiment: Percent injected dose in the blood was determined by canine thrombosis model; type: functional, organism-based; details: Canis lupus familiaris
Canis familiaris [2] = organism: Canis familiaris; experiment: Percent injected dose in the thrombus was determined by canine thrombosis model; type: functional, organism-based; details: Canis lupus familiaris
[3] = Thrombus to blood ratio was determined by canine thrombosis model; type: functional
[4] = Thrombus to muscle ratio was determined by canine thrombosis model; type: functional, Muscle tissue

Compound	IC50 (Homo sapiens) [nM]	other results
N=C(N)c1ccc(C[C@@H]2NC(=O)[C@@H](Cc3ccc(O)cc3)NC(=O)CSC[C@@H](C(=O)N[C@@H](CCCCN)C(=O)NCC(=O)N[C@@H](CS)C(=O)NCC(N)=O)NC(=O)[C@H](CC(=O)O)NC(=O)CNC2=O)cc1	80	
N=C(N)c1ccc(C[C@H]2NC(=O)[C@H](Cc3ccc(O)cc3)NC(=O)CSC[C@H](C(=O)N[C@@H](CCCCN)C(=O)NCC(=O)N[C@@H](CSCC(=O)CC(=O)N[C@@H](CCCCN)C(=O)N[C@@H](CCCCN)C(=O)NCC(=O)N[C@@H](CS)C(=O)O)C(=O)NCC(N)=O)NC(=O)[C@@H](CC(=O)O)NC(=O)CNC2=O)cc1		ID/g (Canis familiaris [1]): 0.0025%; ID/g (Canis familiaris [2]): 0.017%; Ratio [3]: 7.2
N=C(N)c1ccc(C[C@@H]2NC(=O)[C@@H](Cc3ccc(O)cc3)NC(=O)CSC[C@@H](C(=O)NCC(=O)NCC(=O)N[C@@H](CS)C(=O)NCC(=O)N[C@@H](CS)C(=O)NCC(=O)NCC(=O)N[C@@H](CSCC(=O)CC(=O)N[C@@H](CCCCN)C(=O)N[C@@H](CCCCN)C(=O)NCC(=O)N[C@@H](CS)C(=O)O)C(N)=O)NC(=O)[C@H](CC(=O)O)NC(=O)CNC2=O)cc1	50	
NCCCC[C@H](NC(=O)[C@@H]1CSCC(=O)N[C@H](Cc2ccc(O)cc2)C(=O)N[C@@H](CSCCCN)C(=O)NCC(=O)N[C@@H](CC(=O)O)C(=O)N1)C(=O)N[C@@H](CS)C(=O)NCC(N)=O	140	
N=C(N)c1ccc(C[C@@H]2NC(=O)[C@@H](Cc3ccc(O)cc3)NC(=O)CSC[C@@H](C(=O)N[C@@H](CCCCN)C(=O)NCC(=O)N[C@@H](CSCC(=O)CC(=O)N[C@@H](CCCCN)C(=O)N[C@@H](CCCCN)C(=O)NCC(=O)N[C@@H](CS)C(=O)O)C(=O)NCC(N)=O)NC(=O)[C@H](CC(=O)O)NC(=O)CNC2=O)cc1 [listing 1 of 2 here]		Ratio [4]: 41
CC(=O)NCSC[C@H](NC(=O)CNC(=O)[C@H](CSCNC(C)=O)NC(=O)CNC(=O)[C@H](CCCCN)NC(=O)[C@@H]1CSCC(=O)N[C@H](Cc2ccc(O)cc2)C(=O)N[C@@H](CSCCCN)C(=O)NCC(=O)N[C@@H](CC(=O)O)C(=O)N1)C(N)=O	160	
CC(=O)NCSC[C@H](NC(=O)CNC(=O)CNC(=O)[C@@H]1CSCC(=O)N[C@H](Cc2ccc(O)cc2)C(=O)N[C@@H](CSCCCN)C(=O)NCC(=O)N[C@@H](CC(=O)O)C(=O)N1)C(=O)NCC(=O)N[C@@H](CSCNC(C)=O)C(=O)NCC(=O)NCC(=O)N[C@@H](CSCC(=O)CC(=O)N[C@@H](CCCCN)C(=O)N[C@@H](CCCCN)C(=O)NCC(=O)N[C@@H](CS)C(=O)O)C(N)=O	110	
CC(=O)NCSC[C@H](NC(=O)CNC(=O)CNC(=O)[C@@H]1CSCC(=O)N[C@H](Cc2ccc(O)cc2)C(=O)N[C@@H](CSCCCN)C(=O)NCC(=O)N[C@@H](CC(=O)O)C(=O)N1)C(=O)NCC(=O)N[C@@H](CSCNC(C)=O)C(=O)NCC(=O)NCC(=O)N[C@@H](CSC1CCNC(=O)CNCCNC(=O)CNCCNC(=O)C1)C(N)=O (some centres not stated)	30	
NCCCC[C@H](NC(=O)[C@@H]1CSCC(=O)N[C@H](Cc2ccc(O)cc2)C(=O)N[C@@H](CSCCCN)C(=O)NCC(=O)N[C@@H](CC(=O)O)C(=O)N1)C(=O)NCC(=O)N[C@@H](CS)C(=O)NCC(=O)N[C@@H](CS)C(=O)NCC(=O)NCC(=O)N[C@@H](CSC1CC(=O)[N+]2(COC2)C1=O)C(N)=O (some centres not stated)	40	
CC(=O)NCSC[C@H](NC(=O)CNC(=O)CNC(=O)[C@@H]1CSCC(=O)N[C@H](Cc2ccc(O)cc2)C(=O)N[C@@H](CSCCCN)C(=O)NCC(=O)N[C@@H](CC(=O)O)C(=O)N1)C(=O)NCC(=O)N[C@@H](CSCNC(C)=O)C(=O)NCC(=O)NCC(=O)N[C@@H](CSC1CC(=O)[N+]2(CCCCCC2)C1=O)C(N)=O (some centres not stated)	140	
NCCCC[C@H](NC(=O)CNC(=O)CNC(=O)[C@@H]1CSCC(=O)N[C@H](Cc2ccc(O)cc2)C(=O)N[C@@H](CSCCCN)C(=O)NCC(=O)N[C@@H](CC(=O)O)C(=O)N1)C(=O)NCC(=O)N[C@@H](CCCCN)C(=O)NCC(=O)N[C@@H](CCCCN)C(=O)N[C@@H](CCCCN)C(=O)NCC(=O)N[C@@H](CS)C(=O)NCC(N)=O	110	
N=C(N)c1ccc(C[C@@H]2NC(=O)[C@@H](Cc3ccc(O)cc3)NC(=O)CSC[C@@H](C(=O)N[C@@H](CCCCN)C(=O)NCC(=O)N[C@@H](CSCC(=O)CC(=O)N[C@@H](CCCCN)C(=O)N[C@@H](CCCCN)C(=O)NCC(=O)N[C@@H](CS)C(=O)O)C(=O)NCC(N)=O)NC(=O)[C@H](CC(=O)O)NC(=O)CNC2=O)cc1 [listing 2 of 2 here]	30	
CC(=O)NCSC[C@H](NC(=O)CNC(=O)[C@H](CSCNC(C)=O)NC(=O)CNC(=O)CNC(=O)[C@@H]1CSCC(=O)N[C@H](Cc2ccc(O)cc2)C(=O)N[C@@H](CCCN=C(N)N)C(=O)NCC(=O)N[C@@H](CC(=O)O)C(=O)N1)C(N)=O	1300	
N=C(N)c1ccc(C[C@H]2NC(=O)[C@H](Cc3ccc(O)cc3)NC(=O)CSC[C@H](C(=O)N[C@@H](CCCCN)C(=O)NCC(=O)N[C@@H](CSCC(=O)CC(=O)N[C@@H](CCCCN)C(=O)N[C@@H](CCCCN)C(=O)NCC(=O)N[C@@H](CS)C(=O)O)C(=O)NCC(=O)NCC(=O)[C@@H]3CSC45SCC(NC(=O)CNC(=O)[C@H](CSCC(=O)CC(=O)N[C@@H](CCCCN)C(=O)N[C@@H](CCCCN)C(=O)NCC(=O)N[C@@H](CS)C(=O)O)NC(=O)CNC(=O)[C@H](CCCCN)NC(=O)[C@H]6CSCC(=O)N[C@@H](Cc7ccc(O)cc7)C(=O)N[C@H](Cc7ccc(C(=N)N)cc7)C(=O)NCC(=O)N[C@H](CC(=O)O)C(=O)N6)C(=O)N4CC(=O)N35)NC(=O)[C@@H](CC(=O)O)NC(=O)CNC2=O)cc1 (some centres not stated)	40	
CC(=O)NCSC[C@H](NC(=O)CNC(=O)[C@H](CSCNC(C)=O)NC(=O)CNC(=O)CNC(=O)CNC(=O)[C@@H]1CSCC(=O)N[C@H](Cc2ccc(O)cc2)C(=O)N[C@@H](CSCCCN)C(=O)NCC(=O)N[C@@H](CC(=O)O)C(=O)N1)C(N)=O ({CH2CO}-[dY]C(Propyl(3-NH2))GDCGGGC(Acm)GC(Acm)-NH2; thioether N-5)	300	
CC(=O)NCSC[C@H](NC(=O)CNC(=O)CNC(=O)[C@H]1CSCC(=O)N[C@@H](Cc2ccc(O)cc2)C(=O)N[C@H](CSCCCN)C(=O)NCC(=O)N[C@H](CC(=O)O)C(=O)N1)C(=O)NCC(=O)N[C@@H](CSCNC(C)=O)C(=O)NCC(=O)NCC(=O)N[C@@H](CSCC(=O)CC(=O)N[C@@H](CCCCN)C(=O)N[C@@H](CCCCN)C(=O)NCC(=O)N[C@@H](CS)C(=O)O)C(=O)NCC(=O)[C@@H]1CSC23SCC(NC(=O)[C@H](CSCC(=O)CC(=O)N[C@@H](CCCCN)C(=O)N[C@@H](CCCCN)C(=O)NCC(=O)N[C@@H](CS)C(=O)O)NC(=O)CNC(=O)CNC(=O)[C@H](CSCNC(C)=O)NC(=O)CNC(=O)[C@H](CSCNC(C)=O)NC(=O)CNC(=O)CNC(=O)[C@H]4CSCC(=O)N[C@@H](Cc5ccc(O)cc5)C(=O)N[C@H](CSCCCN)C(=O)NCC(=O)N[C@H](CC(=O)O)C(=O)N4)C(=O)N2CC(=O)N13 (some centres not stated)	90	
CC(=O)NCSC[C@H](NC(=O)CNC(=O)[C@H](CSCNC(C)=O)NC(=O)CNC(=O)CNC(=O)CNC(=O)[C@@H]1CSCC(=O)N[C@H](Cc2ccc(O)cc2)C(=O)N[C@@H](CCCN=C(N)N)C(=O)NCC(=O)N[C@@H](CC(=O)O)C(=O)N1)C(N)=O	1400	
CC(=O)NCSC[C@H](NC(=O)CNC(=O)CNC(=O)[C@@H]1CSCC(=O)N[C@H](Cc2ccc(O)cc2)C(=O)N[C@@H](CSCCCN)C(=O)NCC(=O)N[C@@H](CC(=O)O)C(=O)N1)C(=O)NCC(=O)N[C@@H](CSCNC(C)=O)C(=O)NCC(=O)NCC(=O)N[C@@H](CSC1CC(=O)[N+]2(CCCNCCC2)C1=O)C(N)=O (some centres not stated)	40	
CC(=O)NCSC[C@H](NC(=O)CNC(=O)CNC(=O)[C@@H]1CSCC(=O)N[C@H](Cc2ccc(O)cc2)C(=O)N[C@@H](CSCCCN)C(=O)NCC(=O)N[C@@H](CC(=O)O)C(=O)N1)C(=O)NCC(=O)N[C@@H](CSCNC(C)=O)C(=O)NCC(=O)NCC(=O)N[C@@H](CSCC(=O)CC(=O)N[C@@H](CCCCN)C(=O)N[C@@H](CCCCN)C(=O)N[C@@H](CCCCN)C(=O)N[C@@H](CCCCN)C(=O)NCC(=O)N[C@@H](CS)C(=O)O)C(N)=O	30	
C[C@H](NC(=O)[C@H](CS)NC(=O)CNC(=O)[C@H](CCCCN)NC(=O)[C@H](CCCCN)NC(=O)CNC(=O)CNC(=O)[C@H](CCCCN)NC(=O)CNC(=O)CNC(=O)[C@H](CCCCN)NC(=O)[C@@H]1CSCC(=O)N[C@H](Cc2ccc(O)cc2)C(=O)N[C@@H](CSCCCN)C(=O)NCC(=O)N[C@@H](CC(=O)O)C(=O)N1)C(N)=O	80	
